Assay results taken from PubChem BioAssay (NCI).
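These data come from cells grown in 96-well plates and exposed to compound for 48 hours at five concentrations. TGI is the concentration that stops growth completely.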

Experiments:
Experiment in all cases: NCI tumour cell line growth inhibition, 48 h
SW-620 colon = test system: SW-620 colon
TK-10 renal = test system: TK-10 renal
UACC-62 melanoma = test system: UACC-62 melanoma
M19-MEL melanoma = test system: M19-MEL melanoma
OVCAR-5 ovarian = test system: OVCAR-5 ovarian
HOP-62 NSCLC = test system: HOP-62 NSCLC
DMS 273 small cell lung = test system: DMS 273 small cell lung
IGROV1 ovarian = test system: IGROV1 ovarian
SF-539 CNS = test system: SF-539 CNS
UACC-257 melanoma = test system: UACC-257 melanoma
NCI-H23 lung = test system: NCI-H23 lung
COLO 205 colon = test system: COLO 205 colon
786-0 renal = test system: 786-0 renal
OVCAR-8 ovarian = test system: OVCAR-8 ovarian
DMS 114 small cell lung = test system: DMS 114 small cell lung
SK-OV-3 ovarian = test system: SK-OV-3 ovarian
HOP-92 NSCLC = test system: HOP-92 NSCLC
NCI-H522 lung = test system: NCI-H522 lung
SF-268 CNS = test system: SF-268 CNS
LXFL 529 NSCLC = test system: LXFL 529 NSCLC
MALME-3M melanoma = test system: MALME-3M melanoma
RPMI-8226 leukemia = test system: RPMI-8226 leukemia
M14 melanoma = test system: M14 melanoma
SF-295 CNS = test system: SF-295 CNS
HCT-15 colon = test system: HCT-15 colon
SNB-19 CNS = test system: SNB-19 CNS
OVCAR-4 ovarian = test system: OVCAR-4 ovarian
HT29 colon = test system: HT29 colon
CCRF-CEM leukemia = test system: CCRF-CEM leukemia
SNB-75 CNS = test system: SNB-75 CNS
SK-MEL-5 melanoma = test system: SK-MEL-5 melanoma
CAKI-1 renal = test system: CAKI-1 renal
ACHN renal = test system: ACHN renal
HCT-116 colon = test system: HCT-116 colon
SK-MEL-28 melanoma = test system: SK-MEL-28 melanoma
NCI-H226 lung = test system: NCI-H226 lung
OVCAR-3 ovarian = test system: OVCAR-3 ovarian
HCC-2998 colon = test system: HCC-2998 colon
NCI-H460 lung = test system: NCI-H460 lung
RXF 393 renal = test system: RXF 393 renal
K-562 leukemia = test system: K-562 leukemia
HL-60(TB) leukemia = test system: HL-60(TB) leukemia
SR leukemia = test system: SR leukemia
LOX IMVI melanoma = test system: LOX IMVI melanoma
A549 NSCLC = test system: A549 NSCLC
KM12 colon = test system: KM12 colon
MOLT-4 leukemia = test system: MOLT-4 leukemia
SK-MEL-2 melanoma = test system: SK-MEL-2 melanoma
U251 CNS = test system: U251 CNS
SN12C renal = test system: SN12C renal
XF 498 CNS = test system: XF 498 CNS
EKVX NSCLC = test system: EKVX NSCLC
DLD-1 colon = test system: DLD-1 colon
KM20L2 colon = test system: KM20L2 colon
SNB-78 CNS = test system: SNB-78 CNS
A498 renal = test system: A498 renal
UO-31 renal = test system: UO-31 renal
HOP-18 NSCLC = test system: HOP-18 NSCLC

Measured: TGI

O=C(c1ccc(Cl)cc1)c1ccc(OCCCOc2ccc(C(=O)c3ccc(Cl)cc3)cc2)cc1
not listed: SNB-78 CNS | A498 renal | UO-31 renal | HOP-18 NSCLC
> 100 µM: all other assays above

COC(=O)/C=C1/CCC(C(=O)OC)N1 (stereo not drawn)
not listed: OVCAR-5 ovarian | NCI-H522 lung | MALME-3M melanoma | HT29 colon | NCI-H226 lung | HOP-18 NSCLC
> 100 µM: all other assays above

Cc1ccc(NC(=O)C2C(=O)N(c3ccc(C)cc3)C(=O)/C2=N\NC(N)=S)cc1 (stereo not drawn)
not listed: CCRF-CEM leukemia | HL-60(TB) leukemia | SR leukemia | A549 NSCLC | DLD-1 colon
> 100 µM: all other assays above

Cc1nc(Nc2ccc(Cl)cc2)sc1C(=O)NNc1ccc([N+](=O)[O-])cc1[N+](=O)[O-]
27.2 µM: UO-31 renal
34.1 µM: SK-MEL-28 melanoma
51.8 µM: RPMI-8226 leukemia
32.7 µM: SK-MEL-2 melanoma
28 µM: DLD-1 colon
38.7 µM: OVCAR-3 ovarian
35.3 µM: OVCAR-4 ovarian
41.7 µM: M19-MEL melanoma
45.3 µM: M14 melanoma
39.3 µM: DMS 273 small cell lung
40.9 µM: ACHN renal
41.4 µM: HOP-92 NSCLC
29.8 µM: 786-0 renal
46.6 µM: IGROV1 ovarian
38.5 µM: SF-295 CNS
27 µM: HOP-18 NSCLC
25.2 µM: HOP-62 NSCLC
32.6 µM: NCI-H226 lung | EKVX NSCLC
29.5 µM: U251 CNS
44.1 µM: CAKI-1 renal
32 µM: SF-539 CNS
34.7 µM: NCI-H460 lung
39.9 µM: COLO 205 colon
46.7 µM: MOLT-4 leukemia
38.8 µM: SF-268 CNS
36.2 µM: MALME-3M melanoma | SN12C renal
35.4 µM: KM20L2 colon
30.9 µM: LXFL 529 NSCLC
30.2 µM: SK-MEL-5 melanoma
43.5 µM: SW-620 colon | HL-60(TB) leukemia
52.3 µM: SK-OV-3 ovarian | CCRF-CEM leukemia
26.7 µM: HCT-116 colon
34.2 µM: A549 NSCLC
> 100 µM: SNB-78 CNS
28.6 µM: UACC-62 melanoma
31.3 µM: UACC-257 melanoma
32.4 µM: XF 498 CNS
46.5 µM: OVCAR-8 ovarian
37.2 µM: TK-10 renal
30.7 µM: OVCAR-5 ovarian | RXF 393 renal
46.1 µM: K-562 leukemia
35.7 µM: LOX IMVI melanoma
29.6 µM: NCI-H522 lung
33.9 µM: KM12 colon
32.5 µM: SNB-75 CNS
30.6 µM: A498 renal
37.8 µM: DMS 114 small cell lung
30.4 µM: SNB-19 CNS
35.1 µM: NCI-H23 lung
30 µM: HCC-2998 colon

CC(C)(C)N=NNc1cn(C2OC(CO)C(O)C2O)c(=O)[nH]c1=O (stereo not drawn)
50.8 µM: SR leukemia
42.7 µM: RPMI-8226 leukemia
34.7 µM: SW-620 colon
95.4 µM: CCRF-CEM leukemia
not listed: SF-539 CNS | OVCAR-4 ovarian | U251 CNS | XF 498 CNS
> 100 µM: all other assays above

CCc1cc(Cc2cc(Cl)c(NC(=O)C(=O)C3NC(=O)NC3=O)c(CC)c2)cc(Cl)c1NC(=O)C(=O)C1NC(=O)NC1=O (stereo not drawn)
40.1 µM: U251 CNS
24.1 µM: SW-620 colon
41.3 µM: DMS 273 small cell lung
90.7 µM: SNB-75 CNS
72.6 µM: NCI-H23 lung
35.6 µM: HCT-15 colon
54 µM: HT29 colon
59.9 µM: RXF 393 renal
94.8 µM: HCT-116 colon
83.9 µM: DMS 114 small cell lung
58.6 µM: OVCAR-8 ovarian
not listed: NCI-H522 lung | XF 498 CNS | DLD-1 colon
> 100 µM: all other assays above
